Laboratory results published in patent publication US11708348B2, “Protease inhibitors for treatment of coronavirus infections” (The Scripps Research Institute, priority 2021, dated 2023).
Where two headings read alike, the source gives them in different places.

System: SARS-CoV-2 strain USA-WA1/2020
Assay: microbe, parasite or virus in culture
Type: cell-based
Settings: Severe acute respiratory syndrome coronavirus 2, HeLa-ACE2, 24 h, HeLa-ACE2 cells, SARS-CoV-2 infection, 24 h, read-out: EC50, uM (Hela)

SMILES | EC50 [µM] | EC50 (class symbols) [µM] | other results
O=C(NCC(=O)N1CC2(CC2)C[C@H]1C(=O)N[C@@H](C[C@@H]1CCNC1=O)C(=O)COC(F)(F)F)c1ccccc1F [Compound 437, (S)-5-((2-fluorobenzoyl)glycyl)-N-((S)-3-oxo-1-((S)-2-oxopyrrolidin-3-yl)-4-(trifluoromethoxy)butan-2-yl)-5-azaspiro[2.4]heptane-6-carboxamide] | 0.05 to 0.2 | – | –
O=C(Nc1cccc(F)c1F)C(=O)N1CC2(CC2)C[C@H]1C(=O)N[C@@H](C[C@@H]1CCNC1=O)C(=O)COC(F)(F)F [Compound 598, (S)-5-(2-((2,3-difluorophenyl)amino)-2-oxoacetyl)-N-((S)-3-oxo-1-((S)-2-oxopyrrolidin-3-yl)-4-(trifluoromethoxy)butan-2-yl)-5-azaspiro[2.4]heptane-6-carboxamide] | < 0.05 | – | –
CC(C)(F)c1cc(C(=O)N2C=C3C[C@@H]3[C@H]2C(=O)N[C@@H](C[C@@H]2CCNC2=O)C(=O)COC(F)(F)F)no1 [Compound 501, (1S,2S)-3-(5-(2-fluoropropan-2-yl)isoxazole-3-carbonyl)-N-((S)-3-oxo-1-((S)-2-oxopyrrolidin-3-yl)-4-(trifluoromethoxy)butan-2-yl)-3-azabicyclo[3.1.0]hex-4-ene-2-carboxamide] | – | – | EC50 (given as bound): > 1 µM
CC(C)(O)C(=O)N1CC2(CC2)C[C@H]1C(=O)N[C@@H](C[C@@H]1CCNC1=O)C(=O)COC(F)(F)F [Compound 354, (S)-5-(2-hydroxy-2-methylpropanoyl)-N-((S)-3-oxo-1-((S)-2-oxopyrrolidin-3-yl)-4-(trifluoromethoxy)butan-2-yl)-5-azaspiro[2.4]-heptane-6-carboxamide] | – | 0.05 to 0.2 | –
O=C(NC1CCNCC1)C(=O)N[C@@H](CC1CC1)C(=O)N[C@@H](C[C@@H]1CCNC1=O)C(=O)COC(F)(F)F [Compound 232, N1-((S)-3-cyclopropyl-1-oxo-1-(((S)-3-oxo-1-((S)-2-oxopyrrolidin-3-yl)-4-(trifluoromethoxy)butan-2-yl)amino)propan-2-yl)-N2-(piperidin-4-yl)oxalamide] | – | – | EC50 (bound printed in cell): > 1 µM
CC(C)C[C@H](NC(=O)C1CC2(CC2)CO1)C(=O)N[C@@H](C[C@@H]1CCNC1=O)C(=O)COC(F)(F)F (stereo partly drawn) [Compound 789, N-((S)-4-methyl-1-oxo-1-(((S)-3-oxo-1-((S)-2-oxopyrrolidin-3-yl)-4-(trifluoromethoxy)butan-2-yl)amino)pentan-2-yl)-5-oxaspiro[2.4]heptane-6-carboxamide] | < 0.05 | – | –
CC(C)C[C@@H](OCC(C)(C)O)C(=O)N1CC2(CC2)C[C@H]1C(=O)N[C@@H](C[C@@H]1CCNC1=O)C(=O)COC(F)(F)F [Compound 334, (S)-5-((R)-2-(2-hydroxy-2-methylpropoxy)-4-methylpentanoyl)-N-((S)-3-oxo-1-((S)-2-oxopyrrolidin-3-yl)-4-(trifluoromethoxy)butan-2-yl)-5-azaspiro[2.4]heptane-6-carboxamide] | – | 0.05 to 0.2 | –
CC(C)C[C@H](NC(=O)C12CC(C(F)F)(CO1)C2)C(=O)N[C@@H](C[C@@H]1CCNC1=O)C(=O)COC(F)(F)F [Compound 319, 4-(difluoromethyl)-N-((S)-4-methyl-1-oxo-1-(((S)-3-oxo-1-((S)-2-oxopyrrolidin-3-yl)-4-(trifluoromethoxy)butan-2-yl)amino)pentan-2-yl)-2-oxabicyclo-[2.1.1]hexane-1-carboxamide] | – | < 0.05 | –
CC[C@@H](O)C(=O)N1C[C@@H]2CCC[C@@H]2[C@H]1C(=O)N[C@@H](C[C@@H]1CCNC1=O)C(=O)COC(F)(F)F [Compound 377, (1S,3aR,6aS)-2-((R)-2-hydroxybutanoyl)-N-((S)-3-oxo-1-((S)-2-oxopyrrolidin-3-yl)-4-(trifluoromethoxy)butan-2-yl)octahydrocyclo-penta[c]pyrrole-1-carboxamide] | – | 0.05 to 0.2 | –
O=C1NCC[C@H]1C[C@H](NC(=O)[C@@H]1CC2(CC2)CN1C(=O)CC1CC(F)(F)C1)C(=O)COC(F)(F)F [Compound 701, (S)-5-(2-(3,3-difluorocyclobutyl)acetyl)-N-((S)-3-oxo-1-((S)-2-oxopyrrolidin-3-yl)-4-(trifluoromethoxy)butan-2-yl)-5-azaspiro[2.4]heptane-6-carboxamide] | < 0.05 | – | –
